What was measured:
[1] = target: T1, Sodium/hydrogen exchanger 1 (Homo sapiens, UniProt P19634)
Carbonic anhydrase 2 [2] = target: T2, Carbonic anhydrase 2 (Homo sapiens, UniProt P00918)
[3] = target: T3, Monocarboxylate transporter 1 (Homo sapiens, UniProt P53985)
T3 sequence (P53985 whole entry): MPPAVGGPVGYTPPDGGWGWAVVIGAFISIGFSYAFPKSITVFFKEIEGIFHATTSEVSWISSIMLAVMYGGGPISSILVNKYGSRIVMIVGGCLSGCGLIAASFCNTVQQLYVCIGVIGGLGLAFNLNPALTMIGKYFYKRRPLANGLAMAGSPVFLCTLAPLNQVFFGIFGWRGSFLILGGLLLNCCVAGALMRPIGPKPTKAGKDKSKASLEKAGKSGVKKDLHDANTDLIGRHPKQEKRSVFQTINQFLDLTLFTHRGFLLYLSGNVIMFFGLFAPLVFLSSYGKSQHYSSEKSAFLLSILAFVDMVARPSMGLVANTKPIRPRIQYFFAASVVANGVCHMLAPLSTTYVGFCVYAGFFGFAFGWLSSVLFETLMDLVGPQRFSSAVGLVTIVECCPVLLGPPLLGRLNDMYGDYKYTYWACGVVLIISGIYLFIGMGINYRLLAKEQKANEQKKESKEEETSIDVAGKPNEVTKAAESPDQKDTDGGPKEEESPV

[4] = target: T4, Monocarboxylate transporter 1 (Rattus norvegicus, UniProt P53987)
T4 sequence (P53987 whole entry): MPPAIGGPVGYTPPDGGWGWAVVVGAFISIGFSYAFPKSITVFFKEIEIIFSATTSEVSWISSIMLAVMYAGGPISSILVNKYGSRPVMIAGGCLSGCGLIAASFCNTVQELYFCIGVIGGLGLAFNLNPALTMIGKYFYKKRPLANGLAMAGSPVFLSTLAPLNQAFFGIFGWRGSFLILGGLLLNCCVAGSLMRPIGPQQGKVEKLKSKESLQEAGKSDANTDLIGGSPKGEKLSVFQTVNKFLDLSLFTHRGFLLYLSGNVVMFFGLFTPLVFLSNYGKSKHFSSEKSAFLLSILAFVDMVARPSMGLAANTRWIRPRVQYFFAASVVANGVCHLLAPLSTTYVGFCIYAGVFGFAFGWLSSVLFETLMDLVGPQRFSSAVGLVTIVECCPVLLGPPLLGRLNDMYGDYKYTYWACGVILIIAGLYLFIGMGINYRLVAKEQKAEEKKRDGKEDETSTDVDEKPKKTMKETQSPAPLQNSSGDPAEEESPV

Carbonic anhydrase 2 [5] = target: T2, Carbonic anhydrase 2; remark: listed apart in the source
Carbonic anhydrase 2 [6] = target: T2, Carbonic anhydrase 2; remark: listed apart in the source
[7] = target: T3, Monocarboxylate transporter 1; remark: listed apart in the source
[8] = target: T5, Monocarboxylate transporter 4 (Homo sapiens, UniProt O15427)
T5 sequence (O15427 whole entry): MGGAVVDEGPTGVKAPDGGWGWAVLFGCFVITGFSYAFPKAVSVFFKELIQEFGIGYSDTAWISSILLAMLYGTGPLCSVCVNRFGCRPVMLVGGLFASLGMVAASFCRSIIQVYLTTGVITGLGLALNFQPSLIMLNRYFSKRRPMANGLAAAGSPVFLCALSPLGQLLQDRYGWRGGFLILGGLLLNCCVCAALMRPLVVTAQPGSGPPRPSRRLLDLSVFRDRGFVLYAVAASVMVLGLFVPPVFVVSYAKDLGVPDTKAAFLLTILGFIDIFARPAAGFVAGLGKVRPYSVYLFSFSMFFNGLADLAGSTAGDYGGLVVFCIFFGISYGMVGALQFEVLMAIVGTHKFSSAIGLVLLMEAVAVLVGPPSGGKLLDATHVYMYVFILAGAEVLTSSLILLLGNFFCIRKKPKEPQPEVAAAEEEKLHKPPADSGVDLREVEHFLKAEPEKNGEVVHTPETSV

Carbonic anhydrase 9 [9] = target: T6, Carbonic anhydrase 9 (Homo sapiens, UniProt Q16790)
MCF7 [10] = assay: cells; conditions: Homo sapiens, MCF7, 96 h
Carbonic anhydrase 9 [11] = target: T6, Carbonic anhydrase 9; remark: listed apart in the source
[12] = target: T1, Sodium/hydrogen exchanger 1; assay type: cell-based, Platelet
Raji = assay: cells; conditions: Homo sapiens, 96 h
MCF7 [13] = assay: cells; conditions: Homo sapiens
HepG2 = assay: cells; conditions: Homo sapiens
A549 = assay: cells; conditions: Homo sapiens
Carbonic anhydrase 9 [14] = target: T6, Carbonic anhydrase 9; remark: listed apart in the source

T1 sequence (P19634 whole entry): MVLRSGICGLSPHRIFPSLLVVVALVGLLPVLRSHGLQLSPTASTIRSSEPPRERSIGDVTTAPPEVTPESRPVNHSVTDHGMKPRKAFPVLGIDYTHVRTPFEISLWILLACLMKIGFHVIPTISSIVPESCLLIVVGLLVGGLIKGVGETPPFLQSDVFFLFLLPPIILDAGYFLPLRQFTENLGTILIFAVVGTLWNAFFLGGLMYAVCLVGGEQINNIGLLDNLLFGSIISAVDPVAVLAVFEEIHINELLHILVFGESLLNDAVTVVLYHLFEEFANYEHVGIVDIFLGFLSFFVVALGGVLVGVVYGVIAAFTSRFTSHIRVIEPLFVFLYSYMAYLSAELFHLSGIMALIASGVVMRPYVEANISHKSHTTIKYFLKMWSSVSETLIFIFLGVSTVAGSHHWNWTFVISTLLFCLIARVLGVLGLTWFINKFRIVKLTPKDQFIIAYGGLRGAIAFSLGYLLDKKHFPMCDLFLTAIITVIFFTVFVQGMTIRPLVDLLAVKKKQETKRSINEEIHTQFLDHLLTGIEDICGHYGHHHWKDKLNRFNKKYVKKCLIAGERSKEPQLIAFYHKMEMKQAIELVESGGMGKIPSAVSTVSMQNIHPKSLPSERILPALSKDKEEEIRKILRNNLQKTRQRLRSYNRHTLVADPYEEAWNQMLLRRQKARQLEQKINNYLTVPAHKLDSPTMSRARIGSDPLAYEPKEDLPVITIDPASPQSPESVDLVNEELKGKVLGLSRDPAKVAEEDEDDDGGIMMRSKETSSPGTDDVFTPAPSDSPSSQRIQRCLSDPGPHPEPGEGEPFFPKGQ

Q: `N=C(N)NC(=O)[C@H]1C[C@@H]1c1ccccc1` was tested. Which IC50 [1] did it give?
A: 500 nM

Q: Which Ki (Carbonic anhydrase 2 [2]) does the source give for `N#Cc1cc2ccc(O)cc2oc1=O` here?
A: > 200000 nM

Q: Which IC50 [1] does the source give for `COc1ccc(CN2CCN(CCOc3ccc(C(=O)N=C(N)N)cc3[N+](=O)[O-])CC2)c(OC)c1OC` here?
A: 104 nM

Q: `COc1ccc(CN2CCN(CCOc3ccc(C(=O)NC(=N)N)cc3NC(=O)c3sccc3C)CC2)c(OC)c1OC` was tested. Which IC50 [1] did it give?
A: 68 nM

Q: How did the IC50 [3] turn out when `CN(Cc1ccccc1)c1ccc2cc(C(=O)O)c(=O)oc2c1` was run?
A: 59 nM

Q: With `CCN(CC)c1ccc(/C=C(\C#N)C(=O)O)cc1` as the compound, how does the IC50 [4] read?
A: 66 nM

Q: `CC(C(=O)NCCOc1ccc2oc(=O)ccc2c1)c1ccc(-c2ccccc2)c(F)c1` (configuration not stated) was tested. Which Ki (Carbonic anhydrase 2 [5]) did it give?
A: > 10000 nM

Q: With `N#C/C(=C\c1c[nH]c2ccccc12)C(=O)O` as the compound, how does the IC50 [4] read?
A: > 1000 nM

Q: Which Ki (Carbonic anhydrase 2 [2]) does the source give for `COc1ccc(CSc2nnc(COc3ccc4c(C)cc(=O)oc4c3)o2)cc1` here?
A: > 10000 nM

Q: How did the Ki (Carbonic anhydrase 2 [6]) turn out when `NS(=O)(=O)c1ccc(NCC(=O)N/N=C2\C(=O)N(Cc3ccccc3)c3ccccc32)cc1` was run?
A: 204 nM

Q: What does the source list for `O=C(Nc1ccccc1C(=O)O)c1cc(S(=O)(=O)c2ccccc2)ccc1Cl`?
A: IC50 [7]: 85 nM; IC50 [8]: > 50000 nM

Q: For `C=C(C)[C@@H]1CC[C@]2(COS(N)(=O)=O)CC[C@]3(C)[C@H](CC[C@@H]4[C@@]5(C)CC[C@H](OC(=O)NCC)C(C)(C)[C@@H]5CC[C@]43C)[C@@H]12`, which Ki (Carbonic anhydrase 9 [9]) is on record?
A: 4.46 nM

Q: And the IC50 (MCF7 [10])?
A: 10500 nM

Q: How did the IC50 [1] turn out when `CCCCCOc1ccc(C(=O)CN2CCN(Cc3ccc(OC)c(OC)c3OC)CC2)cc1C(=O)N=C(N)N` was run?
A: 108 nM

Q: `Cc1cccc(N2C(=O)CSC2c2cn(-c3ccccc3)nc2-c2cc3ccccc3oc2=O)c1` (configuration not stated) was tested. Which Ki (Carbonic anhydrase 2 [5]) did it give?
A: > 10000 nM

Q: What about the Ki (Carbonic anhydrase 9 [11]) of the same compound?
A: 61.5 nM

Q: With `NC(N)=NC(=O)c1cc2cccc3c2n1C(=O)CCCC3` as the compound, how does the IC50 [1] read?
A: 6 nM

Q: Which IC50 [4] does the source give for `CC(C)(C)[Si](CCOc1ccc(/C=C(\C#N)C(=O)O)cc1)(c1ccccc1)c1ccccc1` here?
A: 97 nM

Q: How did the IC50 (MCF7 [10]) turn out when `C=C(C)[C@@H]1CC[C@]2(COS(N)(=O)=O)CC[C@]3(C)[C@H](CC[C@@H]4[C@@]5(C)CC[C@H](OS(N)(=O)=O)C(C)(C)[C@@H]5CC[C@]43C)[C@@H]12` was run?
A: 10400 nM

Q: `N#C/C(=C\c1cn(-c2ccccc2C(=O)O)c2ccccc12)C(=O)O` was tested. Which IC50 [4] did it give?
A: > 1000 nM

Q: Which IC50 [1] does the source give for `Cc1nc2c(cc1C(=O)N=C(N)N)CCCCC2` here?
A: 17 nM

Q: For `NC(N)=NC(=O)c1cc(Cl)c(N)nc1N`, which IC50 [12] is on record?
A: 1300 nM

Q: `CC(C)N1C(=O)C(C)(C)Oc2cc(C(=O)N=C(N)N)ccc21` was tested. Which IC50 [1] did it give?
A: 200 nM

Q: `O=C(Oc1ccc2c(-c3ccccc3)cc(=O)oc2c1)c1ccccc1` was tested. Which Ki (Carbonic anhydrase 2 [2]) did it give?
A: > 10000 nM

Q: How did the EC50 (Raji) turn out when `CC(C)c1cc(=O)c2c(OCCCO)cc(OCc3cccc4ccccc34)cc2o1` was run?
A: ≤ 100 nM

Q: Which IC50 [1] does the source give for `Cn1c(=O)n(Cc2nnc(N)[nH]2)c(=O)c2ccccc21` here?
A: 5800 nM

Q: How did the IC50 [1] turn out when `Cc1c[nH]c(=O)n(CC(=O)N=C(N)N)c1=O` was run?
A: 155 nM

Q: With `Nc1nn(C(=O)C23CC4CC(CC(C4)C2)C3)c(N)c1/N=N/c1ccccc1` as the compound, how does the Ki (Carbonic anhydrase 2 [5]) read?
A: 85.7 nM

Q: What about the IC50 (MCF7 [13]) of the same compound?
A: 4680 nM

Q: What about the IC50 (HepG2) of the same compound?
A: 2700 nM

Q: What about the IC50 (A549) of the same compound?
A: 1550 nM

Q: With `Cc1cccc2c1cc(C(=O)N=C(N)N)n2C` as the compound, how does the IC50 [1] read?
A: 100 nM

Q: For `CC(=O)Nc1cc([N+](=O)[O-])c(Cl)cc1C(=O)N=C(N)N`, which IC50 [12] is on record?
A: 3600 nM

Q: How did the Ki (Carbonic anhydrase 2 [2]) turn out when `O=C(CN1C(=O)CSC1=O)c1cc2ccccc2oc1=O` was run?
A: > 100000 nM

Q: Which Ki (Carbonic anhydrase 2 [2]) does the source give for `Cc1cc(=O)oc2cc(OCCCCCNc3nc4cc(-c5ccccc5)ccc4o3)ccc12` here?
A: > 10000 nM

Q: And the Ki (Carbonic anhydrase 9 [14])?
A: 32.2 nM

Reference: ChEMBL document CHEMBL5512616, “pH regulators and their inhibitors in tumor microenvironment” (Eur J Med Chem, 2024)
